# Laboratory results from ChEMBL document CHEMBL1201862, “PubChem BioAssay data set” (2004).
#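 96-well plates; 48 h exposure; 5 concentrations. Endpoints by linear interpolation between flanking doses. Not reached: highest tested concentration assigned. The concentration for 50% growth inhibition is given as GI50.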 The source made the active and inactive calls. Rule as the data show it: active = GI50 up to about 1.1 µM and inactive = higher.
# What was measured:
# Experiment in all cases: NCI anticancer screen, dose series, 48 h
# [1] = test system: U-251
# [2] = test system: OVCAR-3
# [3] = test system: UACC-62
# [4] = test system: OVCAR-5
# [5] = test system: OVCAR-8
# [6] = test system: MDA-N
# [7] = test system: HCC 2998
# [8] = test system: SN12C
# [9] = test system: T47D
# [10] = test system: SF-268
# [11] = test system: SNB-75
# [12] = test system: Malme-3M
# [13] = test system: IGROV-1
# [14] = test system: UACC-257
# [15] = test system: LOX IMVI
# [16] = test system: MDA-MB-231
# [17] = test system: MOLT-4
# [18] = test system: SR
# [19] = test system: A498
# [20] = test system: NCI-H460
Structure (SMILES),GI50 [1],GI50 [2],GI50 [3],GI50 [4],GI50 [5],GI50 [6],GI50 [7],GI50 [8],GI50 [9],GI50 [10],GI50 [11],GI50 [12],GI50 [13],GI50 [14],GI50 [15],GI50 [16],GI50 [17],GI50 [18],GI50 [19],GI50 [20]
CC1(C)O[C@@H]2[C@@H]3OC(=O)C[C@@H]3[C@@H](COCc3ccccc3)[C@@H]2O1,> 100 µM (inactive),> 100 µM (inactive),> 100 µM (inactive),> 100 µM (inactive),> 100 µM (inactive),> 100 µM (inactive),> 100 µM (inactive),> 100 µM (inactive),> 100 µM (inactive),> 100 µM (inactive),> 100 µM (inactive),> 100 µM (inactive),> 100 µM (inactive),> 100 µM (inactive),> 100 µM (inactive),> 100 µM (inactive),> 100 µM (inactive),> 100 µM (inactive),> 100 µM (inactive),> 100 µM (inactive)
COc1ccc(/C=C2\c3cc(OC)c(OC)cc3CCN2C(=O)c2ccccc2)cc1OC,82.6 µM (inactive),35.7 µM (inactive),36.7 µM (inactive),55 µM (inactive),27.5 µM (inactive),25 µM (inactive),44.6 µM (inactive),70.1 µM (inactive),33.3 µM (inactive),46.3 µM (inactive),32 µM (inactive),22.5 µM (inactive),> 100 µM (inactive),86.9 µM (inactive),41.6 µM (inactive),45.5 µM (inactive),25.2 µM (inactive),30.8 µM (inactive),35.4 µM (inactive),28.1 µM (inactive)
COC(c1ccc(C(C)(C)C)cc1)(c1ccc(C(C)(C)C)cc1)c1ccc(C(C)(C)C)cc1,> 100 µM (inactive),> 100 µM (inactive),> 100 µM (inactive),> 100 µM (inactive),> 100 µM (inactive),> 100 µM (inactive),> 100 µM (inactive),> 100 µM (inactive),> 100 µM (inactive),> 100 µM (inactive),> 100 µM (inactive),> 100 µM (inactive),> 100 µM (inactive),–,> 100 µM (inactive),> 100 µM (inactive),> 100 µM (inactive),> 100 µM (inactive),> 100 µM (inactive),> 100 µM (inactive)
CC(C)CCCC(C)[C@H]1CC[C@H]2n3c(nc4ccccc43)CCC[C@]12C (some centres not stated),19.2 µM (inactive),17.4 µM (inactive),16.2 µM (inactive),–,17.1 µM (inactive),16.2 µM (inactive),–,15.9 µM (inactive),15.4 µM (inactive),20.3 µM (inactive),14.6 µM (inactive),21.9 µM (inactive),17 µM (inactive),20 µM (inactive),32.7 µM (inactive),16 µM (inactive),16.1 µM (inactive),15.8 µM (inactive),13.2 µM (inactive),15.9 µM (inactive)
CCN(CC)C(=S)SS(=O)(=O)c1ccc(Cl)cc1,15.1 µM (inactive),31.7 µM (inactive),20.5 µM (inactive),44 µM (inactive),16.9 µM (inactive),36.1 µM (inactive),> 100 µM (inactive),20.2 µM (inactive),46.2 µM (inactive),53 µM (inactive),–,11.7 µM (inactive),–,24.2 µM (inactive),15.4 µM (inactive),34.9 µM (inactive),–,0.0796 µM (active),> 100 µM (inactive),29 µM (inactive)
O=C(NNC(=S)Nc1ccccc1)c1cc(-c2ccccc2)nc2ccccc12,12.2 µM (inactive),11.1 µM (inactive),15.6 µM (inactive),18.1 µM (inactive),22.3 µM (inactive),18.2 µM (inactive),15.5 µM (inactive),20.8 µM (inactive),7.4 µM (inactive),22.9 µM (inactive),17.3 µM (inactive),23.3 µM (inactive),26.7 µM (inactive),19.1 µM (inactive),–,20.1 µM (inactive),11.4 µM (inactive),13.6 µM (inactive),11.5 µM (inactive),20.7 µM (inactive)
COC(=O)C1(C)CCC(c2ccc(C)cc2)=C(CC(=O)O)C1 (configuration not stated),> 100 µM (inactive),> 100 µM (inactive),> 100 µM (inactive),> 100 µM (inactive),> 100 µM (inactive),> 100 µM (inactive),–,> 100 µM (inactive),> 100 µM (inactive),> 100 µM (inactive),> 100 µM (inactive),> 100 µM (inactive),> 100 µM (inactive),> 100 µM (inactive),> 100 µM (inactive),> 100 µM (inactive),> 100 µM (inactive),> 100 µM (inactive),> 100 µM (inactive),> 100 µM (inactive)
